In paper PMC9776540, “Therapeutic Potential of a Water-Soluble Silver-Diclofenac Coordination Polymer on 3D Pancreatic Cancer Spheroids” (Journal of Medicinal Chemistry, 2022):

Assays:
PANC-1 cells [1] = conditions: PANC-1, 1 at IC50, others at molar ratio 1:1:1, 72 h after treatment
Description: (§1) MCF7 cell line (human breast adenocarcinoma, morphology: epithelial-like, ATCC: HTB-22), A549 cell […]
(§2) keratinocyte, morphology: epidermal, CSL Cell Lines Service GmbH); were cultured in Dulbecco’s Modified Eagle’s Medium (DMEM, Corning) with phenol red, supplemented with 10% fetal bovine serum (FBS) and with 1% streptomycin/penicillin. […]
(§3) from metastatic site: brain, ATCC: HTB-81) and MCR-5 cell line (primary line of human pulmonary […]
(§4) 10% fetal bovine serum (FBS). Cultures were incubated at 37 °C under a humidified atmosphere containing 5% CO2. Cells were transferred using a solution containing 0.05% trypsin and 0.5 mM EDTA.
All media and other ingredients were purchased from ALAB, Poland. […]
Acridine Orange (OA) and Propidium Iodide PI Staining
AO is a nucleic acid-binding fluorophore that is cell membrane permeable and suitable for selective staining of nucleated living cells. PI is a nucleic acid-binding dye that is impermeable to live cells and suitable for staining dead or dying nucleated cells. All live, nucleated cells fluoresce green due to AO, and dead, nucleated cells are stained with both AO and PI and fluoresce red. For analysis of 1-induced

PANC-1 [2] = experiment: MTT survival test, surviving fraction (Table S3); type: cell-based, human
Description: (§5) 24, and 72 h. After each incubation time, the cells were washed with PBS. Then, fresh medium (supplemented with 10% FSB) was added, and the cells were incubated under standard conditions for another 24 h (6h + 24h, 24h + 24h, 72h + 24h). After this time, the MTT survival test was done. Surviving fraction given in % was estimated with relation to untreated cells. In the case of 6h + 24h and 24h + 24h approaches, the cells were seeded at 10 000 cells per well, while in the case of 72h + 24h at […]

DU-145 [3] = experiment: MTT survival test, surviving fraction (Table S3); type: cell-based, human
Description: as §5

HaCat [4] = experiment: MTT survival test, surviving fraction (Table S3); type: cell-based, human
Description: as §5

MCF-7 = experiment: MTT survival test, surviving fraction (Table S3); type: cell-based, human
Description: as §5

A549 [5] = experiment: MTT survival test, surviving fraction (Table S3); type: cell-based, human
Description: as §5

PANC-1 [6] = experiment: MTT cytotoxicity assay (IC50); type: cell-based, human; conditions: Homo sapiens, PANC-1, 72 h
Description: as §1, §2, §3, §4
(§6) All media and other ingredients were purchased from ALAB, Poland.
(§7) Cytotoxicity was assessed by MTT assay performed according the protocols described elsewhere.S1 In brief, 1×10^4 cells per well, seeded in 96-well flat bottom microtiter plate, were incubated with the tested compounds (in the appropriate media) at various range of concentrations for 24 h. After that time, solutions of compounds were washed out, cells were washed three times with PBS and fresh medium was applied. After next 72 h cell viability was determined using the Hill equation (Origin 9.0) with regard to the untreated cells (control), where y0 – untreated cell control (which was set to 100% viability), y100 – a lysis control (where the cells were treated with 0.5% triton X-100 was set to 0% […]
(§8) [c] at which the viability of the cells reaches 50%, H – the Hill coefficient (describing cooperativity):
(§9) Each compound concentration was tested in five replicates and repeated at least three times.
(§10) Determined values of IC50 are given as mean + S.D. (Standard Deviation).
(§11) Cisplatin was tested as a reference anticancer drug. […]

DU-145 [7] = experiment: MTT cytotoxicity assay (IC50); type: cell-based, human; conditions: Homo sapiens, DU-145, 72 h
Description: as §1, §2, §3, §4, §6, §7, §8, §9, §10, §11

HaCat [8] = experiment: MTT cytotoxicity assay (IC50); type: cell-based, human; conditions: Homo sapiens, HaCaT, 72 h
Description: as §1, §2, §3, §4, §6, §7, §8, §9, §10, §11

MRC5 = experiment: MTT cytotoxicity assay (IC50); type: cell-based, human; conditions: Homo sapiens, MRC5, 72 h
Description: as §1, §2, §3, §4, §6, §7, §8, §9, §10, §11

A549 [9] = experiment: MTT cytotoxicity assay (IC50); type: cell-based, human; conditions: Homo sapiens, A549, 72 h
Description: as §1, §2, §3, §4, §6, §7, §8, §9, §10, §11

MCF7 = experiment: MTT cytotoxicity assay (IC50); type: cell-based, human; conditions: Homo sapiens, MCF7, 72 h
Description: as §1, §2, §3, §4, §6, §7, §8, §9, §10, §11

PANC-1 cells [10] = experiment: Mitochondrial membrane potential, JC-10 assay; type: cell-based, human; conditions: PANC-1, 4 h, 1 at IC50, others at molar ratio 1:1:1
Description: As an important indicator of mitochondrial dysfunction, the variation in mitochondrial membrane potential was monitored by the JC-10 probe (Figure 6C) aiming to understand the importance of mitochondrial disorder during the cancer cell death induced by 1.
Detection of Mitochondrial Membrane Potential (Δψ)
Mitochondrial membrane potential (MMP) depletion was determined by JC-10 Assay (Life
Technologies, USA). […] After 24h
ciprofloxacin (10 µg/mL) as positive and negative control, respectively. After that, cells were incubated
for 4 h at standard condition (37 °C, 5% CO2). Then, they were washed twice with PBS buffer and
incubated with JC-10 for 1 h. Afterwards, emission was measured at two different excitation
wavelengths ( exc = 540 nm,  em = 570 nm) and ( exc = 485 nm,  em = 530 nm). Results are presented as
the intensity ratio of red to green emission (mean + S.D.).

pBR322 plasmid = experiment: DNA strand break analysis, agarose gel electrophoresis; type: biochemical; conditions: pBR322, 24 h, even at high concentration (500 μM)
Description: Then, the interaction between DNA and diclofenac, PTA, or 1 was evaluated by the gel electrophoresis of pBR322 plasmid to determine an ability to cause double- and/or single-strand DNA damages (Figure 6D). The double-strand damage may result in the appearance of different forms of DNA (linear form III and relaxed form II), which can be quantified by densitometry analysis (Figure 6E).
DNA Strand Break Analysis
The ability of 1, PTA and diclofenac to induce single- or double-strand breaks in plasmid DNA was tested
with the pBR322 plasmid (c = 0.5 mg/mL). All compounds were dissolved in water (c = 1 µM-500 µM).
After 1 h incubation at 37 °C, the reaction mixtures (20 μL) were mixed with 3 μL of loading buffer
(bromophenol blue in 30% glycerol) and loaded on 1% agarose gels, containing EB, in TBE buffer (90
mM Tris–borate, 20 mM EDTA, pH = 8.0). Gel electrophoresis was performed at a constant voltage of
100 V (4 V/cm) for 60 min. The gel was photographed and processed with a Digital Imaging System
(Syngen Biotech). For the densitometric analysis the UltraQuant 6.0 program was used.

SMILES: C1N2CN3CN1CP(C2)C3 [PTA, 1,3,5-triaza-7-phosphaadamantane]
- cytotoxicity seen by AO/PI staining (PANC-1 cells [1]): did not induce visible cytotoxicity
- surviving fraction (PANC-1 [2]; PANC-1, 6h + 24h, dil. 10 000x (stocks: diclofenac 0.918, PTA 0.483, AgNO3 0.326 mg/mL)): 89.7 ± 12.5%
- surviving fraction (PANC-1 [2]; PANC-1, 6h + 24h, dil. 100x (stocks: diclofenac 0.918, PTA 0.483, AgNO3 0.326 mg/mL)): 74.7 ± 9.8%
- surviving fraction (PANC-1 [2]; PANC-1, 6h + 24h, dil. 1000x (stocks: diclofenac 0.918, PTA 0.483, AgNO3 0.326 mg/mL)): 86.5 ± 6.4%
- surviving fraction (PANC-1 [2]; PANC-1, 24h + 24h, dil. 10 000x (stocks: diclofenac 0.918, PTA 0.483, AgNO3 0.326 mg/mL)): 107.5 ± 6.8%
- surviving fraction (PANC-1 [2]; PANC-1, 24h + 24h, dil. 100x (stocks: diclofenac 0.918, PTA 0.483, AgNO3 0.326 mg/mL)): 78.7 ± 8.3%
- surviving fraction (PANC-1 [2]; PANC-1, 24h + 24h, dil. 1000x (stocks: diclofenac 0.918, PTA 0.483, AgNO3 0.326 mg/mL)): 85.2 ± 9.5%
- surviving fraction (PANC-1 [2]; PANC-1, 72h + 24h, dil. 10 000x (stocks: diclofenac 0.918, PTA 0.483, AgNO3 0.326 mg/mL)): 98.9 ± 8.9%
- surviving fraction (PANC-1 [2]; PANC-1, 72h + 24h, dil. 100x (stocks: diclofenac 0.918, PTA 0.483, AgNO3 0.326 mg/mL)): 70.8 ± 6.7%
- surviving fraction (PANC-1 [2]; PANC-1, 72h + 24h, dil. 1000x (stocks: diclofenac 0.918, PTA 0.483, AgNO3 0.326 mg/mL)): 83.4 ± 5.1%
- surviving fraction (DU-145 [3]; Du-145, 6h + 24h, dil. 10 000x (stocks: diclofenac 0.918, PTA 0.483, AgNO3 0.326 mg/mL)): 106.9 ± 9.2%
- surviving fraction (DU-145 [3]; Du-145, 6h + 24h, dil. 100x (stocks: diclofenac 0.918, PTA 0.483, AgNO3 0.326 mg/mL)): 78.4 ± 11.8%
- surviving fraction (DU-145 [3]; Du-145, 6h + 24h, dil. 1000x (stocks: diclofenac 0.918, PTA 0.483, AgNO3 0.326 mg/mL)): 89.3 ± 8.8%
- surviving fraction (DU-145 [3]; Du-145, 24h + 24h, dil. 10 000x (stocks: diclofenac 0.918, PTA 0.483, AgNO3 0.326 mg/mL)): 99.2 ± 7.2%
- surviving fraction (DU-145 [3]; Du-145, 24h + 24h, dil. 100x (stocks: diclofenac 0.918, PTA 0.483, AgNO3 0.326 mg/mL)): 73.8 ± 12.6%
- surviving fraction (DU-145 [3]; Du-145, 24h + 24h, dil. 1000x (stocks: diclofenac 0.918, PTA 0.483, AgNO3 0.326 mg/mL)): 89.2 ± 5.8%
- surviving fraction (DU-145 [3]; Du-145, 72h + 24h, dil. 10 000x (stocks: diclofenac 0.918, PTA 0.483, AgNO3 0.326 mg/mL)): 101.2 ± 12.4%
- surviving fraction (DU-145 [3]; Du-145, 72h + 24h, dil. 100x (stocks: diclofenac 0.918, PTA 0.483, AgNO3 0.326 mg/mL)): 62.3 ± 8.7%
- surviving fraction (DU-145 [3]; Du-145, 72h + 24h, dil. 1000x (stocks: diclofenac 0.918, PTA 0.483, AgNO3 0.326 mg/mL)): 84.2 ± 8.2%
- surviving fraction (HaCat [4]; 6h + 24h, dil. 10 000x (stocks: diclofenac 0.918, PTA 0.483, AgNO3 0.326 mg/mL)): 109.7 ± 6.3%
- surviving fraction (HaCat [4]; 6h + 24h, dil. 100x (stocks: diclofenac 0.918, PTA 0.483, AgNO3 0.326 mg/mL)): 99.7 ± 4.9%
- surviving fraction (HaCat [4]; 24h + 24h, dil. 10 000x (stocks: diclofenac 0.918, PTA 0.483, AgNO3 0.326 mg/mL)): 98.1 ± 12.1%
- surviving fraction (HaCat [4]; 24h + 24h, dil. 100x (stocks: diclofenac 0.918, PTA 0.483, AgNO3 0.326 mg/mL)): 92.2 ± 5.3%
- surviving fraction (HaCat [4]; 24h + 24h, dil. 1000x (stocks: diclofenac 0.918, PTA 0.483, AgNO3 0.326 mg/mL)): 96.7 ± 9.7%
- surviving fraction (HaCat [4]; 72h + 24h, dil. 10 000x (stocks: diclofenac 0.918, PTA 0.483, AgNO3 0.326 mg/mL)): 100.6 ± 8.1%
- surviving fraction (HaCat [4]; 72h + 24h, dil. 100x (stocks: diclofenac 0.918, PTA 0.483, AgNO3 0.326 mg/mL)): 91.2 ± 6.5%
- surviving fraction (HaCat [4]; 72h + 24h, dil. 1000x (stocks: diclofenac 0.918, PTA 0.483, AgNO3 0.326 mg/mL)): 98.2 ± 8.4%
- surviving fraction (MCF-7; MCF-7, 6h + 24h, dil. 10 000x (stocks: diclofenac 0.918, PTA 0.483, AgNO3 0.326 mg/mL)): 88.6 ± 7.5%
- surviving fraction (MCF-7; MCF-7, 6h + 24h, dil. 100x (stocks: diclofenac 0.918, PTA 0.483, AgNO3 0.326 mg/mL)): 78.6 ± 13.1%
- surviving fraction (MCF-7; MCF-7, 6h + 24h, dil. 1000x (stocks: diclofenac 0.918, PTA 0.483, AgNO3 0.326 mg/mL)): 89.6 ± 4.8%
- surviving fraction (MCF-7; MCF-7, 24h + 24h, dil. 10 000x (stocks: diclofenac 0.918, PTA 0.483, AgNO3 0.326 mg/mL)): 100.2 ± 6.6%
- surviving fraction (MCF-7; MCF-7, 24h + 24h, dil. 100x (stocks: diclofenac 0.918, PTA 0.483, AgNO3 0.326 mg/mL)): 70.9 ± 8.8%
- surviving fraction (MCF-7; MCF-7, 24h + 24h, dil. 1000x (stocks: diclofenac 0.918, PTA 0.483, AgNO3 0.326 mg/mL)): 82.7 ± 11.5%
- surviving fraction (MCF-7; MCF-7, 72h + 24h, dil. 10 000x (stocks: diclofenac 0.918, PTA 0.483, AgNO3 0.326 mg/mL)): 102.5 ± 6.0%
- surviving fraction (MCF-7; MCF-7, 72h + 24h, dil. 100x (stocks: diclofenac 0.918, PTA 0.483, AgNO3 0.326 mg/mL)): 84.7 ± 8.9%
- surviving fraction (MCF-7; MCF-7, 72h + 24h, dil. 1000x (stocks: diclofenac 0.918, PTA 0.483, AgNO3 0.326 mg/mL)): 88.6 ± 7.9%
- surviving fraction (A549 [5]; A549, 6h + 24h, dil. 10 000x (stocks: diclofenac 0.918, PTA 0.483, AgNO3 0.326 mg/mL)): 96.8 ± 10.8%
- surviving fraction (A549 [5]; A549, 6h + 24h, dil. 100x (stocks: diclofenac 0.918, PTA 0.483, AgNO3 0.326 mg/mL)): 77.5 ± 9.8%
- surviving fraction (A549 [5]; A549, 6h + 24h, dil. 1000x (stocks: diclofenac 0.918, PTA 0.483, AgNO3 0.326 mg/mL)): 82.4 ± 12.9%
- surviving fraction (A549 [5]; A549, 24h + 24h, dil. 10 000x (stocks: diclofenac 0.918, PTA 0.483, AgNO3 0.326 mg/mL)): 98.6 ± 5.9%
- surviving fraction (A549 [5]; A549, 24h + 24h, dil. 100x (stocks: diclofenac 0.918, PTA 0.483, AgNO3 0.326 mg/mL)): 77.2 ± 12.8%
- surviving fraction (A549 [5]; A549, 24h + 24h, dil. 1000x (stocks: diclofenac 0.918, PTA 0.483, AgNO3 0.326 mg/mL)): 88.2 ± 8.7%
- surviving fraction (A549 [5]; A549, 72h + 24h, dil. 10 000x (stocks: diclofenac 0.918, PTA 0.483, AgNO3 0.326 mg/mL)): 92.7 ± 8.6%
- surviving fraction (A549 [5]; A549, 72h + 24h, dil. 100x (stocks: diclofenac 0.918, PTA 0.483, AgNO3 0.326 mg/mL)): 67.3 ± 8.6%
- surviving fraction (A549 [5]; A549, 72h + 24h, dil. 1000x (stocks: diclofenac 0.918, PTA 0.483, AgNO3 0.326 mg/mL)): 79.8 ± 7.5%
- IC50 (PANC-1 [6]): 1290 ± 52.6 µM
- IC50 (DU-145 [7]): 1230 ± 21.9 µM
- IC50 (HaCat [8]): 826 ± 8.76 µM
- IC50 (MRC5): 867 ± 18.3 µM
- IC50 (A549 [9]): 1170 ± 14.7 µM
- IC50 (MCF7): 1471 ± 14.4 µM
- change of mitochondrial membrane potential (570/530 nm ratio of JC-10 fluorescence intensity) (PANC-1 cells [10]): significant decrease
- degradation of plasmid DNA (pBR322 plasmid): no degradation of DNA
